US8722676B2, “Bicyclic piperazine compounds” (Genentech, Inc., priority 2011, dated 2014)

System: production of CD69 by B lymphocytes in human whole blood activated with goat F(ab')2 anti-human IgM
Test: CD69 Whole Blood Assay (CD69 Hu Blood FACS)
Type: cell-based
Details: anti-IgM stimulated, 20 hour incubation, CD69+ of CD20+ cells
Description: A CD69 Whole Blood Assay can be conducted on Formula I compounds to determine the ability of compounds to inhibit the production of CD69 by B lymphocytes in human whole blood activated by crosslinking surface IgM with goat F(ab′)2 anti-human IgM (Example 907). CD69 is a type II C-type lectin involved in lymphocyte migration and cytokine secretion. CD69 expression represents one of the earliest available indicators of leukocyte activation and its rapid induction occurs through transcriptional activation (Vazquez et al (2009) Jour. of Immunology Published Oct. 19, 2009, doi:10.4049/jimmunol.0900839). Concentration-dependent inhibition of antigen receptor stimulation by selective Btk inhibitors induces cell surface expression of the lymphocyte activation marker CD69 (Honigberg et al (2010) Proc. Natl. Acad. Sci. 107(29):13075-13080). Thus, CD69 inhibition by selective Btk inhibitors may be correlated with therapeutic efficacy of certain B-cell disorders.
Human blood is obtained from healthy volunteers, with the following restrictions: 1 week drug-free, non-smokers. Blood (approximately 20 mls to test 8 compounds) is collected by venipuncture into Vacutainer® (Becton, Dickinson and Co.) tubes with sodium heparin.
Solutions of Formula I compounds at 10 mM in DMSO are diluted 1:10 in 100% DMSO, then are diluted by three-fold serial dilutions in 100% DMSO for a ten point dose-response curve. The compounds are further diluted 1:10 in PBS and then an aliquot of 5.5 μl of each compound is added in duplicate to a 2 ml 96-well plate; 5.5 μl of 10% DMSO in PBS is added as control and no-stimulus wells. Human whole blood—HWB (100 μl) is added to each well. After mixing the plates are incubated at 37° C., 5% CO2, 100% humidity for 30 minutes. Goat F(ab′)2 anti-human IgM (10 μl of a 500 μg/ml solution, 50 μg/ml final) is added to each well (except the no-stimulus wells) with mixing and the plates are incubated for an additional 20 hours. At the end of the 20 hour incubation, samples are incubated with fluorescent labeled antibodies for 30 minutes, at 37° C., 5% CO2, 100% humidity. Include induced control, unstained and single stains for compensation adjustments and initial voltage settings. Samples are then lysed with PharM Lyse™ (BD Biosciences Pharmingen) according to the manufacturer's instructions. Samples are then transferred to a 96 well plate suitable to be run on the BD Biosciences HTS 96 well system on the LSRII machine. Data acquired and Mean Fluorescence Intensity values were obtained using BD Biosciences DIVA Software. Results are initially analyzed by FACS analysis software (Flow Jo).

SMILES	CD69 Hu Blood FACS IC70 (Table 2)	CD69 Hu Blood FACS IC70 (Table 1)
O=C1c2sc3c(c2CCN1c1cc(F)cc(-c2nc(Nc4ccc(N5CCN(C6COC6)CC5)cc4)c4nc[nH]c4n2)c1CO)CCCC3 [Compound 119, 2-[5-fluoro-2-(hydroxymethyl)-3-[6-[4-[4-(oxetan-3-yl)piperazin-1-yl]anilino]-9H-purin-2-yl]phenyl]-3,4,5,6,7,8-hexahydrobenzothiopheno[2,3-c]pyridin-1-one]	0.727 µM	
O=C1c2cc3c(n2CCN1c1cc(F)cc(-c2cc(Nc4ccc(N5CCN(C6COC6)CC5)cn4)c4nccn4n2)c1CO)CCCC3 [Compound 105, 2-(5-Fluoro-2-(hydroxymethyl)-3-(8-(5-(4-(oxetan-3-yl)piperazin-1-yl)pyridin-2-ylamino)imidazo[1,2-b]pyridazin-6-yl)phenyl)-3,4,6,7,8,9-hexahydro-pyrazino[1,2-a]indol-1(2H)-one]		0.049 µM
CN1CCN(c2ccc(Nc3cc(-c4cc(F)cc(N5CCc6c(sc7c6CCCC7)C5=O)c4CO)cn4ccnc34)nc2)CC1 [Compound 103, 5-[5-Fluoro-2-(hydroxymethyl)-3-{(8-(5-(4-methylpiperazin-1-yl)pyridine-2-ylamino)imidazo[1,2-a]pyridin-6-yl)}phenyl]-8-thia-5-azatricyclo[7.4.0.0^2,7]trideca-1(9),2(7)-dien-6-one]		0.319 µM
CC1(C)Cc2cc3n(c2C1)CCN(c1cc(F)cc(-c2nc(Nc4ccc(N5CCN(C6COC6)CC5)cc4)c4nc[nH]c4n2)c1CO)C3=O [Compound 123, 3-[5-fluoro-2-(hydroxymethyl)-3-[6-[4-[4-(oxetan-3-yl)piperazin-1-yl]anilino]-9H-purin-2-yl]phenyl]-7,7-dimethyl-1,2,6,8-tetrahydrocyclopenta[3,4]pyrrolo[3,5-b]pyrazin-4-one]	0.256 µM	
